Laboratory results from patent publication US4200650A, “2-Amino-cyclopent-1-ene-1-thiocarboxylic acid-disulfides to treat noradrenergic malfunctions” (Richter Gedeon Vegyeszeti Gyar Rt., priority 1976, dated 1980).

Tests used:
dopamine-β-hydroxylase [1] = experiment: Determination of the adrenaline content of adrenal gland; assay type: in vivo, male Wistar rats; conditions: ± standard error
Procedure: (§1) The dopamine-β-hydroxylase inhibiting effects of the new compounds according to the invention were examined by the following tests:
(§2) The tests were performed on male Wistar rats weighing 150 to 200 g. The dopamine-β-hydroxylase inhibiting effects of the compounds were evaluated by determining the change of noradrenaline, dopamine and adrenaline levels of the cerebrum, heart, spleen and adrenal gland. The serotonine and 5-hydroxy-indolylacetic acid levels of the cerebrum were also determined. The measurements were performed as follows:
(§3) The animals were decapitated, the cerebrum, heart, spleen and adrenal gland were removed quickly, and the organs were frozen by placing them onto a metal sheet cooled with dry ice. The frozen organs were stored for maximum one night at -20° C.
Determination of the adrenaline content of adrenal gland
The adrenal glands were freed from fat and homogenized in 3.0 ml of ice-cold 0.4 n perchloric acid. The homogenized mixtures were centrifuged for 10 minutes at 0° C. with a speed of 3200 r.p.m. using a Janetzky K-70 type centrifuge. 0.05 ml samples were taken from the supernatant, and the adrenaline level was determined directly by the method of Laverty et al. (Anal. Biochem. 22, 269/1968/).
(§4) In the tests disulfiram, 2,2-dipyridyl, bis(1-methyl-4-homopiperazinyl-thriocaronyl)-disulfide, sodium diethyldithiocarbamate and N-phenyl-N'-(2-thiazolyl)-thiourea were applied as reference substances. The values indicated in Table 1 are the percentages in relation to the amine levels of the controls measured in the same tests (± standard error). The statistical calculations were performed on a TPA/i type computer, using Student's t test.

dopamine-β-hydroxylase [2] = experiment: Determination of noradrenaline and dopamine levels of brain (dopamine-β-hydroxylase inhibiting effect); assay type: in vivo, male Wistar rats; conditions: ± standard error
Procedure: as §1, §2, §3
Determination of the noradrenaline, dopamine, serotonine and 5-hydroxy-indolylacetic acid contents of brain
The brains were homogenized in 10 parts by volume of 0.4 n perchloric acid. The homogenized mixture was stored at -20° C. overnight, thereafter it was thawed and centrifuged as described above. A sample of the homogenized mixture corresponding to 0.5 g of brain was removed, the pH of the sample was adjusted to 8.0±0.1 with 0.1 molar tris-buffer of the above composition, and the sample was processed as described above for the determination of the noradrenaline content of heart and spleen, with the difference that 1.5 ml of 0.05 n perchloric acid were applied as eluting agent. 0.5 ml of the eluate were applied to determine the noradrenaline and dopamine contents. The measurement was performed as described above, with the difference that samples of 0.5 ml were applied for the recording of the fluorescency of noradrenaline. The residua was placed for 50 minutes into a drying oven heated to 100° C., thereafter the sample was cooled with ice water, and the fluorescency of dopamine was recorded at wavelengths of 325 nm (excitation) and 380 nm (emission).
In a further test series the serotonine and 5-hydroxy-indolylacetic acid contents were also determined, beside the determination of the noradrenaline and dopamine content, from the same sample. In this instance the brains were homogenized in 10 ml of 75% ethanol, 0.2 ml of EDTA-Na2 and 5% of ascorbic acid were added to the homogenized mixtures, and the homogenized mixtures were maintained at -20° C. overnight. The mixtures were centrifuged as described above, and 5.0 ml samples of the supernatant were removed. The samples were diluted with equal volumes of distilled water, and poured onto ion exchange columns of 0.5×1.5 cm dimensions, filled with buffered Amberlite CG-30 (200 to 400 mesh). The columns were washed with 5 ml of distilled water followed by 1.0 ml of 0.2 n hydrochloric acid, and the first effluent and the aqueous wash were collected for the determination of 5-hydroxy-indolylacetic acid. Elution was continued with further 1.2 ml of 0.2 n hydrochloric acid in order to remove noradrenaline, dopamine and serotonine. Samples of 0.3 ml were used for the determinations.
Noradrenaline and dopamine were determined by the method of Shellenberger, modified as described above, whereas serotonine was determined by the method of Curzon et al. (Brit. J. Pharmacol. 39, 653/1970/). The basic method was modified as follows: A 0.5% solution of ortho-phthal(di)aldehyde in absolute ethanol was diluted with 10 n hydrochloric acid to 50-fold of its original volume, and 0.6 ml of the resulting 0.01% ortho-phthal(di)aldehyde solution were added immediately to 0.5 ml of the serotonine-containing sample. The sample was placed into a hot water bath for 10 minutes, thereafter cooled with tap water, and the fluorescency was recorded at wavelengths of 360 nm (excitation) and 490 nm (emission).
In the tests disulfiram, 2,2-dipyridyl, bis(1-methyl-4-homopiperazinyl-thriocaronyl)-disulfide, sodium diethyldithiocarbamate and N-phenyl-N'-(2-thiazolyl)-thiourea were applied as reference substances. […]

dopamine-β-hydroxylase [3] = experiment: Determination of the noradrenaline content of spleen; assay type: in vivo, male Wistar rats; conditions: ± standard error
Procedure: as §1, §2, §3
(§5) Determination of the noradrenaline content of heart and spleen
(§6) The organs were weighed in frozen state and then homogenized in 5.0 ml of 0.4 n perchloric acid containing 0.05% of EDTA-Naa and 0.1% of Na2 S2 O5. The homogenized mixtures were centrifuged as described above for the treatment of adrenal gland, the supernatants were decanted, and the pH was adjusted to 8.0±0.1 with a 0.1 molar tris buffer containing 20 g/l of NaOH and 25 g/l of EDTA-Na2. 100 mg of prepared Al2 O3 (Anton et al.: J. Pharm. Ther. 138, 360/1962/) were added to the samples, and the mixtures were shaken mechanically for 20 minutes. Thereafter Al2 O3 was washed with 2×10 ml of distilled water, and noradrenaline was eluted with 1.0 ml of 0.05 n perchloric acid. 0.5 ml samples of the eluate were applied for the determination of noradrenaline. Noradrenaline was determined according to the method of Shellenberger et al. (Anal. Biochem. 39, 356/1971/), with the following modifications of the basic procedure: 0.5 ml of 0.1 molar Na-K-phosphate buffer, containing 9 g/l of EDTA-Na2, were added to 0.5 ml of the eluate, and the catecholamines (noradrenaline in the examination of heart and spleen and noradrenaline and dopamine in the examination of the cerebrum) were oxidized with 0.1 ml of a 0.1 n iodine solution in 5% potassium iodide. After exactly 2 minutes oxidation was stopped by adding 0.25 ml of a 2.5% sodium sulfite solution in 4.4 n aqueous sodium hydroxide to the mixture. 2 minutes after the introduction of the alkaline sulfite solution 0.2 ml of concentrated acetic acid were added to the samples, upon which the pH decreased to 4.4 to 4.5 Thereafter the samples were placed for 5 minutes into a drying oven heated to 100° C., and then the samples were cooled with ice water. The fluorescency of noradrenaline was measured with an OPTON spectrophotometer at wavelengths of 380 nm (excitation) and 490 nm (emission).
as §4

dopamine-β-hydroxylase [4] = experiment: Determination of the noradrenaline content of heart; assay type: in vivo, male Wistar rats; conditions: ± standard error
Procedure: as §1, §2, §3, §5, §6, §4

dopamine-β-hydroxylase [5] = conditions: literature; cited from earlier work

| SMILES | Adrenal gland AD (adrenaline) level, percentages in relation to the controls (dopamine-β-hydroxylase [1]; i.p., 200 mg/kg, 4 hours) | Adrenal gland AD (adrenaline) level, percentages in relation to the controls (dopamine-β-hydroxylase [1]; i.p., 200 mg/kg, 8 hours) | Brain DA (dopamine) level, percentages in relation to the controls (dopamine-β-hydroxylase [2]; i.p., 200 mg/kg, 4 hours) | Brain NA (noradrenaline) level, percentages in relation to the controls (dopamine-β-hydroxylase [2]; i.p., 200 mg/kg, 4 hours) | Brain DA (dopamine) level, percentages in relation to the controls (dopamine-β-hydroxylase [2]; i.p., 200 mg/kg, 8 hours) | Brain NA (noradrenaline) level, percentages in relation to the controls (dopamine-β-hydroxylase [2]; i.p., 200 mg/kg, 8 hours) | Spleen NA (noradrenaline) level, percentages in relation to the controls (dopamine-β-hydroxylase [3]; i.p., 200 mg/kg, 4 hours) | Spleen NA (noradrenaline) level, percentages in relation to the controls (dopamine-β-hydroxylase [3]; i.p., 200 mg/kg, 8 hours) | Heart NA (noradrenaline) level, percentages in relation to the controls (dopamine-β-hydroxylase [4]; i.p., 200 mg/kg, 4 hours) | Heart NA (noradrenaline) level, percentages in relation to the controls (dopamine-β-hydroxylase [4]; i.p., 200 mg/kg, 8 hours) | dopamine-β-hydroxylase inhibiting effects, in words (dopamine-β-hydroxylase [5]) | also measured |
| --- | --- | --- | --- | --- | --- | --- | --- | --- | --- | --- | --- | --- |
| CCNC1=C(C(=S)SSC(=S)C2=C(NCC)CCC2)CCC1 [Compound M-6, 2-(N-ethyl)-amino-cyclopent-1-ene-thiocarboxylic acid-disulfide] | 97.3±4.1% | 79.0±3.9% | 134.9±5.4% | 34.4±2.6% | 121.7±6.1% | 34.2±3.5% | 85.0±10.8% | 86.5±23.5% | 97.8±8.8% | 81.3±5.7% |  | Adrenal gland AD (adrenaline) level, percentages in relation to the controls (dopamine-β-hydroxylase [1]; i.p., 100 mg/kg, 4 hours): 123.4±4.6%; Adrenal gland AD (adrenaline) level, percentages in relation to the controls (dopamine-β-hydroxylase [1]; p.o., 500 mg/kg, 4 hours): 121.4±13.7%; Adrenal gland AD (adrenaline) level, percentages in relation to the controls (dopamine-β-hydroxylase [1]; p.o., 500 mg/kg, 8 hours): 107.5±8.9%; Brain DA (dopamine) level, percentages in relation to the controls (dopamine-β-hydroxylase [2]; i.p., 100 mg/kg, 4 hours): 99.0±5.22%; Brain NA (noradrenaline) level, percentages in relation to the controls (dopamine-β-hydroxylase [2]; i.p., 100 mg/kg, 4 hours): 41.8±2.3%; Brain DA (dopamine) level, percentages in relation to the controls (dopamine-β-hydroxylase [2]; p.o., 500 mg/kg, 4 hours): 106.7±3.4%; Brain NA (noradrenaline) level, percentages in relation to the controls (dopamine-β-hydroxylase [2]; p.o., 500 mg/kg, 4 hours): 83.9±4.8%; Brain DA (dopamine) level, percentages in relation to the controls (dopamine-β-hydroxylase [2]; p.o., 500 mg/kg, 8 hours): 92.6±4.0%; Brain NA (noradrenaline) level, percentages in relation to the controls (dopamine-β-hydroxylase [2]; p.o., 500 mg/kg, 8 hours): 73.7±4.7%; Spleen NA (noradrenaline) level, percentages in relation to the controls (dopamine-β-hydroxylase [3]; i.p., 100 mg/kg, 4 hours): 64.1±7.6%; Spleen NA (noradrenaline) level, percentages in relation to the controls (dopamine-β-hydroxylase [3]; p.o., 500 mg/kg, 4 hours): 125.4±12.4%; Spleen NA (noradrenaline) level, percentages in relation to the controls (dopamine-β-hydroxylase [3]; p.o., 500 mg/kg, 8 hours): 64.6±12.4%; Heart NA (noradrenaline) level, percentages in relation to the controls (dopamine-β-hydroxylase [4]; i.p., 100 mg/kg, 4 hours): 92.9±3.3%; Heart NA (noradrenaline) level, percentages in relation to the controls (dopamine-β-hydroxylase [4]; p.o., 500 mg/kg, 4 hours): 82.4±8.2%; Heart NA (noradrenaline) level, percentages in relation to the controls (dopamine-β-hydroxylase [4]; p.o., 500 mg/kg, 8 hours): 97.5±5.6% |
| CCN(CC)C(=S)S [diethyl dithiocarbamate] |  |  |  |  |  |  |  |  |  |  | strong dopamine-β-hydroxylase inhibiting effects |  |
| CCCCc1ccc(C(=O)O)nc1 [Fusaric acid, 5-butyl-picolinic acid] |  |  |  |  |  |  |  |  |  |  | strong dopamine-β-hydroxylase inhibiting effects |  |
| C=CCNC1=C(C(=S)SSC(=S)C2=C(NCC=C)CCC2)CCC1 [Compound M-7, 2-(N-allyl)-amino-cyclopent-1-ene-thiocarboxylic acid-disulfide] | 93.3±8.0% | 69.8±6.8% | 123.6±8.1% | 50.5±5.2% | 104.7±5.7% | 64.5±4.4% | 66.1±18.1% | 88.5±33.9% | 100.0±3.9% | 91.8±3.7% |  |  |
| S=C(SSC(=S)C1=C(NC2CCCCC2)CCC1)C1=C(NC2CCCCC2)CCC1 [Compound M-5, 2-(N-cyclohexyl)-amino-cyclopent-1-ene-thiocarboxylic acid disulfide] | 109.0±2.3% | 105.6±3.3% | 124.2±4.0% | 64.6±1.8% | 116.2±3.3% | 76.9±2.2% | 83.2±8.9% | 68.7±6.7% | 94.7±6.8% | 89.5±3.0% |  |  |
| NNCc1ccccc1 [benzylhydrazine] |  |  |  |  |  |  |  |  |  |  | exert dopamine-β-hydroxylase inhibiting effects | duration of activity, in words (dopamine-β-hydroxylase [5]): exert their activities for a short period |
